Data as given in patent US20230414764A1, “Template Assembly by Proximity-Enhanced Reactivity via Metabolic Labeling” (The General Hospital Corporation, priority 2020, published 2023).
“And” between values parts separate entries of the source, which are not always exact repeats. Equal values may be shown once.

Assays:
HeLa cells [1] = experiment: Detection of cell-surface template on AzNAM-labeled HeLa cells with bi-labeled FAM complementary probe, flow analysis; assay type: cell-based, human; details: AzNAM-treated HeLa cells with surface template; 800 pmol probe, 30 minutes
Source text: Specific cell surface template (positioned by means of click chemical reactions with metabolically derived surface AzNAM; as described in Example 3) can be detected with alternate methods. One such approach uses probe nucleic acid molecules that are complementary to the template of interest, where both 5′- and 3′-ends of such probes are both modified with a fluorescent group, such as FAM.
For example, HeLa cells with surface template of the same sequence as in Example 3 but with a DNA backbone were treated with a 5′/3′ bi-labeled complementary probe of sequence: […] (SEQ ID NO:72). The same cells were also treated with a control bi-labeled scrambled oligonucleotide of sequence CTT […] (SEQ ID NO:73). For treatments, 10^5 washed AzNAM-labeled HeLa cells in 100 μl of serum-free RPMI 1640 medium were incubated with 800 pmol of complementary or scrambled bi-labeled oligonucleotides for 30 minutes at room temperature. Cells were centrifuged (3 minutes at 2000 rpm) and washed once with 500 μl of serum-free RPMI 1640 medium and once with the same volume of PBS. Cells were finally resuspended in 200 μl of PBS and subjected to standard flow analysis.

HeLa cells [2] = experiment: Azide metabolic labeling of HeLa cells with AzNAM, reaction with DBCO-FAM, fluorescent plate reader; assay type: cell-based, human; details: AzNAM 10-125 μM, 20 hours, DBCO-FAM 10 μM, 96-well plate reader
Description: Initially, cells were cultured in a suitable culture vessel such that their level of confluency at the time of addition of the azide-modified sugar, AzNAM, was not more than 80%.
In particular, HeLa cells were plated in 6-well plates (2.5×10^4 cells/well) and incubated for 48 hours in DMEM-10% FBS medium in a standard 5% CO2 atmosphere. Medium from each well was removed, and each well was washed with 2 ml of phosphate buffered saline (PBS), and fresh DMEM-FBS (1 ml) added. Subsequently, varying amounts of AzNAM (solubilized in DMSO) were added to the wells in small (10 μl) volumes to produce the desired final concentrations in the range 10-125 μM (see, FIG. 1). After an additional 20 hours incubation, the medium in each well was removed, and the wells were washed with 2 ml of PBS, followed by addition of 1 ml of PBS. Then, a fluorescent azide reactive molecule, DBCO-FAM (Broadpharm), was directly added to each well to produce a final concentration of 10 μM.
Plates with added DBCO-FAM were protected from bright light and incubated for 1 hour at room temperature. Supernatants in each well were removed, and each well was washed twice with 2 ml of PBS. […] After pelleting and washing in PBS, cells were resuspended in 150 μl of PBS and counted. Defined numbers in 50 μl volumes in a 96-well Blackwell plate (Corning) were assayed for fluorescence in a fluorescent plate reader (Tecan).

HeLa cells [3] = experiment: Flow cytometry of AzNAM-labeled HeLa cells reacted with DBCO-FAM; assay type: cell-based, human; details: AzNAM 125 μM, 20 hours, versus cells receiving no azide-modified sugar
Description: In separate cultures, HeLa cells were added to wells of a 12-well plate at 10,000 cells/well, and cultured for 72 hours under normal conditions. The wells were washed with 1 ml of PBS, and 0.5 ml of DMEM-10% FBS was added. AzNAM was added to a final concentration of 125 μM, with cells receiving no azide-modified sugar as controls. After 20 hours, cells were harvested with CellStripper (250 μl/well), washed with PBS, and subjected to flow analysis.

HeLa cells [4] = experiment: Surface template / ligation-template (LT) qPCR assay on azide-labeled HeLa cells; assay type: cell-based, human; details: HeLa cells treated with greater than 6 μM of AzNAM
Source text: For example, a nuclease-resistant template (with a 2′-O-methyl RNA backbone) can be modified with a 5′ or 3′ DBCO group, allowing it to specifically react with azides on the surface of metabolically labeled cells. Following this, the template-bearing cells can be treated with two shorter “ligation template” (LT) oligonucleotides each complementary to contiguous regions of the template, and where one of the LT oligonucleotides bears a 5′-phosphate (LT1). After annealing, the 5′-phosphate of LT1 can be ligated with the 3′-hydroxyl on its partner LT (LT2) adjacent on the same template (see, FIG. 16). For this ligation, a ligase enzyme can be used that is compatible with modified nucleic acid backbones, such as Splint® Ligase (New England Biolabs). Since each LT oligonucleotide is also equipped with an additional priming site, the joined LT (1+2) sequence can be amplified by PCR, and can also easily be amenable to quantitation by qPCR. […]
To apply the surface template/LT assay to azide-labeled HeLa cells, cells were treated with several concentrations of AzNAM in 6-well plates at about 80% confluency. After 20 hours, cells were removed from the plate with CellStripper, washed with […] (SF-RPMI), and counted. […]
LT1 and LT2 oligonucleotides complementary to the surface template were added in equimolar quantities to a final concentration of 0.2 pmol/μl. […]

[5] = tested on: murine ovarian cancer cell line ID8; experiment: Metabolic labeling (AzNAM/DPEG-FAM) of ID8 cells, flow cytometric analysis; assay type: cell-based
Source text: For Examples 7-11, metabolic labeling was monitored by treatment of cultured cells with the sugar analog peracetylated N-azidoacetylmannosamine (AzNAM), followed after harvest with treatment with the bifunctional click/fluorescent compound DBCO-PEG3-FAM (DPEG-FAM). Surface azide groups resulting from the metabolic labeling process react with the DBCO group (dibenzocyclooctyne) of DPEG-FAM, and were monitored by flow cytometry.
The murine ovarian cancer cell line ID8 represent an example of a cell type giving a relatively low metabolic labeling response, as assessed by AzNAM/DPEG-FAM as usual, results shown in FIGS. 22A-22D. Subconfluent ID8 cells were treated with or without 100 ng/ml murine interferon-beta (mIFNβ), and then treated with AzNAM and DPEG-FAM in a similar manner as for the Jurkat cells of Examples 7 and 8. […] FIGS. 22A-22D show flow cytometric analysis of murine ID8 cells after treatment with 100 ng/ml murine IFN-beta for 3 days, with addition of 100 μM AzNAM at 22 hr prior to harvest. Cells were treated with DPEG-FAM prior to flow analysis.
The murine-specific STING agonist DMXAA (R&D Systems) was used to test ID8 cells with a similar experimental arrangement as for Example 9. […] FIGS. 24A-24D show flow cytometric analysis of murine ID8 cells after treatment with 20 μM murine STING agonist DMXAA for 3 days, with addition of 100 μM AzNAM at 22 hr prior to harvest. Cells were treated with DPEG-FAM prior to flow analysis.

[6] = tested on: Jurkat cells (human T lymphoma); experiment: Metabolic labeling (AzNAM/DPEG-FAM) of Jurkat cells, flow cytometric analysis; assay type: cell-based
Description: Surface azide groups resulting from the metabolic labeling process react with the DBCO group (dibenzocyclooctyne) of DPEG-FAM, and were monitored by flow cytometry.
22 hr prior to harvest, cell media were supplemented with […] AzNAM or control solvent only (DMSO). After harvest and washing, cells (10^6 cells/ml) were treated with 2 mM DPEG-FAM, washed, and subjected to flow cytometric analysis. […] FIGS. 20A-20D show flow cytometric analysis of human Jurkat cells after treatment with 100 ng/ml human IFN-beta for three days, with addition of 100 μM AzNAM at 22 hr prior to harvest. Cells were treated with DPEG-FAM prior to flow analysis.
FIGS. 21A-21D show flow cytometric analysis of human Jurkat cells after treatment with 75 ng/ml human IFN-beta for 3 days, with addition of 100 μM AzNAM at 22 hr prior to harvest. Cells were treated with DPEG-FAM prior to flow analysis.
FIGS. 23A-23D show flow cytometric analysis of human Jurkat cells after treatment with 50 μM STING agonist 1 (STAG1) for 3 days, with addition of 100 μM AzNAM at 22 hr prior to harvest. Cells were treated with DPEG-FAM prior to flow analysis.

## complementary oligonucleotide: 5′/3′ FAM bi-labeled probe complementary to surface template, SEQ ID NO:72 (DNA TCCAGATGTCTTTGCTTTTCTTCAGGACACA; 5' and 3' FAM labels, chemistry not fully specified)
HeLa cells [1]
  fluorescent peak relative to cells incubated with control scrambled oligonucleotide: significantly shifted fluorescent peak

## CC(=O)OC[C@H]1OC(OC(C)=O)[C@@H](NC(=O)CN=[N+]=[N-])[C@@H](OC(C)=O)[C@@H]1OC(C)=O (some centres unmarked) [AzNAM, peracetylated N-azidoacetylmannosamine]
HeLa cells [2]
  cell-associated fluorescence: increased as a function of the levels of AzNAM
HeLa cells [3]
  flow analysis peak shift: marked and well-demarcated peak shifts
HeLa cells [4]
  increase over background in formation of the templated LT product: over an order of magnitude
[5]; ID8/AzNAM (Ctrl): 100 μM AzNAM at 22 hr prior to harvest, no-treatment control, DPEG-FAM
  geometric mean fluorescence (GM): 37.68 and 19.14

## Cc1ccc2c(=O)c3cccc(CC(=O)O)c3oc2c1C [DMXAA]
[5]; ID8/AzNAM+DMXAA: 20 μM DMXAA 3 days, 100 μM AzNAM 22 hr prior to harvest
  geometric mean fluorescence (GM): 33.73
[5]; ID8/Ctrl+DMXAA: 20 μM DMXAA 3 days, control solvent only
  geometric mean fluorescence (GM): 1.67
[5]; ID8, 20 μM DMXAA 3 days
  AzNAM/DPEG-FAM response enhancement relative to the untreated value: 1.8 fold
  effect on comparably-treated DMSO controls: no effect

## O=C(NCc1ccco1)c1ccc2c(c1)N(Cc1c(F)cccc1Cl)C(=O)CS2 [STAG1]
[6]; Jurkat, 50 μM STAG1 3 days
  impact on control DMSO-treated cells: minimal
  metabolic labeling enhancement relative to the untreated value: 1.2 fold
[6]; Jurkats/AzNAM+STAG1: 50 μM STAG1 3 days, 100 μM AzNAM 22 hr prior to harvest
  geometric mean fluorescence (GM): 325.69
[6]; Jurkats/DMSO+STAG1: 50 μM STAG1 3 days, control solvent only
  geometric mean fluorescence (GM): 1.47

B1: mIFNβ: murine interferon-beta (protein, UniProt P01575 22-182, looked up)
Interferon beta: INYKQLQLQERTNIRKCQELLEQLNGKINLTYRADFKIPMEMTEKMQKSYTAFAIQEMLQNVFLVFRNNFSSTGWNETIVVRLLDELHQQTVFLKTVLEEKQEERLTWEMSSTALHLKSYYWRVQRYLKLMKYNSYAWMVVRAEIFRNFLIIRRLTRNFQN
[5]; ID8/AzNAM+mIFNβ: 100 ng/ml murine IFN-beta 3 days, 100 μM AzNAM 22 hr prior to harvest
  geometric mean fluorescence (GM): 80.58
[5]; ID8/DMSO+mIFNβ: 100 ng/ml murine IFN-beta 3 days, control solvent only
  geometric mean fluorescence (GM): 16.49
[5]; ID8, 100 ng/ml mIFNβ 3 days
  labeling change in control DMSO cells: much reduced labeling increase
  labeling enhancement of AzNAM-treated cells relative to the untreated value: 2.1 fold
